Test results from patent US10870684B2, “Disintegrin variants and pharmaceutical uses thereof” (National Cheng Kung University, priority 2014, dated 2020).

System: platelet aggregation that is mediated by αIIbβ3
Assay: Inhibition of ADP-induced platelet aggregation in platelet-rich plasma
Type: cell-based
Details: PRP
Experimental: Disintegrin (Rho) variants were also tested for their ability to inhibit platelet aggregation that is mediated by αIIbβ3. Venous blood (9 parts) samples from healthy donors who had not received any medication for at least two weeks were collected in 3.8% sodium citrate (1 part). Blood samples were centrifuged at 150×g for 10 min to obtain platelet-rich plasma (PRP) and allowed to stand for 5 min, and PRP was collected. The platelet-poor plasma (PPP) was prepared from the remaining blood by centrifuging at 2000×g for 25 min. The PPP platelet count was measured on a hematology analyzer and diluted to 250,000 platelets/μl. A solution of 190 μl of PRP and 10 μl of either Rho or PBS buffer were incubated for 5 min in a Hema Tracer 601 aggregometer at 37° C. Ten microliters of 200 μM adenosine diphosphate (ADP) were further added to monitor the response of platelet aggregation by light transmission.

How did the IC50 turn out when “rhodostomin [Rho wild-type, reference compound]” was run?
Its IC50 is 83.2 nM.
